Data published in paper doi:10.1101/2025.11.02.686125v3 (bioRxiv, 2025).
Values after ≈ are worked out from the molar mass of the structure shown. Like-named read-outs stand apart in the source and are kept apart here. Where a SMILES comes first, the peptide text is derived from it. Bridges are numbered along the chain shown (N, C = ends). [ ]: non-standard residue; d: D form. The star is where a group is joined. NMeT = CN[C@H](C(=O)O)[C@@H](C)O; dNMeL = CN[C@H](CC(C)C)C(=O)O; NMeV = CN[C@H](C(=O)O)C(C)C; X1 = COC(=O)[C@H](N)CS*; X2 = N[C@H](CS*)C(=O)O

What was measured:
Mav strain MAH11 = settings: 40 h

Structure (SMILES) | Luminescence after benzyl alcohol pretreatment (Msm (luc) cells) | Luminescence after spermidine pretreatment (Msm (luc) cells) | MIC Mtb (Mtb strain mc^26206) | MIC Mav (Mav strain MAH11) | MIC Mtb (Mtb strain mc^26206; strain mc^26206, 40 h)
O=C(O)[C@H]1CSC(c2nc3ccc(O)cc3s2)=N1 [D-luciferin] | modestly reduced the accumulation | significant loss of signal | – | – | –
COC(=O)[C@H](N)CSSC[C@H](NC(C)=O)C(=O)N(C)[C@H](C(=O)N1CCC[C@H]1C(=O)N(C)[C@@H]1C(=O)N[C@@H](CC(C)C)C(=O)N2CCC[C@H]2C(=O)N[C@@H](CC(C)C)C(=O)N(C)[C@@H](C(C)C)C(=O)N2CCC[C@H]2C(=O)N(C)[C@H](CC(C)C)C(=O)NCC(=O)O[C@@H]1C)C(C)C [cys-ME-GM] (Ac-C(X1)[NMeV]P[NMeT]LPL[NMeV]P[dNMeL]G; ester 4-C) | – | – | 2 µM (≈ 2.64 µg/mL) | 4 µM (≈ 5.29 µg/mL) | –
CC(=O)N[C@@H](CSSC[C@@H](N)C(=O)O)C(=O)N(C)[C@H](C(=O)N1CCC[C@H]1C(=O)N(C)[C@@H]1C(=O)N[C@@H](CC(C)C)C(=O)N2CCC[C@H]2C(=O)N[C@@H](CC(C)C)C(=O)N(C)[C@@H](C(C)C)C(=O)N2CCC[C@H]2C(=O)N(C)[C@H](CC(C)C)C(=O)NCC(=O)O[C@@H]1C)C(C)C [cys-GM] (Ac-C(X2)[NMeV]P[NMeT]LPL[NMeV]P[dNMeL]G; ester 4-C) | – | – | – | > 32 µM | > 32 µM
